Test results as given in patent US20070032460A1, “Use of voacamine and related compounds in the treatment of malaria” (priority 2005, published 2007).
Like-named read-outs stand apart in the source and are kept apart here. Blank lines part the entries; values can stand above or below the molecule they belong to.

Experiments:
[1] = tested on: CQ-sensitive (D6) strain of P. falciparum; format: cell-based
Plasmodium falciparum = conditions: verapamil alone, without chloroquine; cited from earlier work
[2] = doses of 2000 and 5000 mg/day; cited from earlier work
[3] = chloroquine-sensitive strain of P. falciparum, in vitro, Table V, read-out: IC50 (10^−7 M) S
[4] = Plasmodium falciparum, D6, chloroquine-sensitive strain of P. falciparum, in vitro, Table V, read-out: IC50 (10^−7 M) S

Molecule: Ervahanine
IC50 [1, 3]: 680 nM

Molecule: COc1ccc(CCN(C)CCCC(C#N)(c2ccc(OC)c(OC)c2)C(C)C)cc1OC (centres unmarked) [verapamil]
effect on malaria, drug alone (Plasmodium falciparum): no effect

IC50 [1, 4]: 470 nM
Molecule: C/C=C1/CN(C)[C@H]2Cc3c([nH]c4ccccc34)C(=O)C[C@H]1[C@@H]2C(=O)OC [VOB, Vobasine]

Molecule: Tabernamine
IC50 [1, 3]: 650 nM

Molecule: Decarbomethoxyvoacamine [DCV]
IC50 [1, 3]: 490 nM

Molecule: CCN(CC)CCCC(C)Nc1ccnc2cc(Cl)ccc12 (centres unmarked) [CQ, chloroquine, reference compound]
IC50 ([1]; Plasmodium falciparum, D6, read-out: IC50, single drug): 28.5 ± 3.5 nM
IC50 ([1]; Plasmodium falciparum, D6, read-out: IC50 of each drug in combination VOA (1.0 μM) CQ (0.3 μM)): 15.9 ± 2.7 nM
IC50 ([1]; Plasmodium falciparum, D6, read-out: IC50 of each drug in combination VOA (2.0 μM) CQ (0.2 μM)): 13.5 ± 2.9 nM
IC50 ([1]; Plasmodium falciparum, D6, read-out: IC50 of each drug in combination VOA (3.0 μM) CQ (0.1 μM)): 8.2 ± 1.5 nM

Molecule: C[C@@H]1CC[C@H]2[C@@H](C)C(=O)O[C@@H]3O[C@@]4(C)CC[C@@H]1[C@]32OO4 [QHS, qinghaosu, reference compound]
IC50 ([1]; S strain (D6), VOA/QHS ratio 10:1, read-out: IC50 of each drug in combination VOA (2.0 μM) QHS (0.2 μM)): 14.6 ± 0.8 nM
IC50 ([1]; S strain (D6), VOA/QHS ratio 10:3, read-out: IC50 of each drug in combination VOA (1.0 μM) QHS (0.3 μM)): 25.9 ± 2.5 nM
IC50 ([1]; S strain (D6), VOA/QHS ratio 30:1, read-out: IC50 of each drug in combination VOA (3.0 μM) QHS (0.1 μM)): 9.7 ± 2.3 nM
IC50 ([1]; S strain (D6), drug alone, Table II, mean ± S.D., three experiments, read-out: IC50, single drug): 38.3 ± 4.7 nM

Molecule: Voacamidine [VDN]
IC50 [1, 3]: 510 nM

Molecule: CC[C@H]1C[C@@H]2CN3CCc4c([nH]c5ccccc45)[C@](C(=O)OC)(C2)[C@H]13 [COR, Coronaridine]
IC50 [1, 4]: 500 nM

Molecule: CC=C1CN(C)C2Cc3c([nH]c4ccccc34)C(c3cc4[nH]c5c(c4cc3OC)CCN3CC4CC(CC)C3C5(C(=O)OC)C4)CC1C2C(=O)OC (centres unmarked) [VOA, Voacamine]
IC50 ([1]; Plasmodium falciparum, D6, read-out: IC50 (10^−7 M) S, chloroquine-sensitive strain of P. falciparum, in vitro, Table V): 240 nM
IC50 ([1]; Plasmodium falciparum, D6, read-out: IC50, single drug, S strain (D6), drug alone, Table 1, mean ± S.D., three experiments): 238 ± 23.7 nM
IC50 ([1]; Plasmodium falciparum, D6, read-out: IC50, single drug, S strain (D6), drug alone, Table II, mean ± S.D., three experiments): 298 ± 59.8 nM
IC50 ([1]; Plasmodium falciparum, D6, read-out: IC50 of each drug in combination VOA (1.0 μM) CQ (0.3 μM), S strain (D6), VOA/CQ ratio 10:3): 56.9 ± 8.2 nM
IC50 ([1]; Plasmodium falciparum, D6, read-out: IC50 of each drug in combination VOA (1.0 μM) QHS (0.3 μM), S strain (D6), VOA/QHS ratio 10:3): 87.2 ± 9.5 nM
IC50 ([1]; Plasmodium falciparum, D6, read-out: IC50 of each drug in combination VOA (2.0 μM) CQ (0.2 μM), S strain (D6), VOA/CQ ratio 10:1): 114 ± 25.1 nM
IC50 ([1]; Plasmodium falciparum, D6, read-out: IC50 of each drug in combination VOA (2.0 μM) QHS (0.2 μM), S strain (D6), VOA/QHS ratio 10:1): 114 ± 5.6 nM
IC50 ([1]; Plasmodium falciparum, D6, read-out: IC50 of each drug in combination VOA (3.0 μM) CQ (0.1 μM), S strain (D6), VOA/CQ ratio 30:1): 223 ± 35.8 nM
IC50 ([1]; Plasmodium falciparum, D6, read-out: IC50 of each drug in combination VOA (3.0 μM) QHS (0.1 μM), S strain (D6), VOA/QHS ratio 30:1): 240 ± 45.3 nM
toxicity in prior studies [2]: minimal toxicity

Molecule: N6Demethylvoacamine [NDV]
IC50 [1, 3]: 470 nM
